Experiments:
[1] = test system: K-562 human chronic myelogenous leukemia (CML) cell line; test: Tumor growth inhibition, K-562 xenograft; format: in vivo; conditions: K-562 in mice, oral 8 mg/kg, (Mon, Wed, Fri)x4; p <0.05 to <0.001
Description: (§1) To evaluate in vivo efficacy and effect of 4,4,4-Trifluoro-N-[(1S)-2-[[(7S)-5-(2-hydroxyethyl)-6-oxo-7H-pyrido[2,3-d][3]benzazepin-7-yl]amino]-1-methyl-2-oxo-ethyl]butanamide on inhibition of Notch processing pharmacodynamics (PD), several cell lines- and patient-derived xenograft models are used. A2780 is a human ovarian cell line (Sigma-Aldrich, No. 93112519); SW480 is a human colorectal cell line (ATCC No. CCL-228); HCT 116 is a human colorectal cell line (ATCC No. CCL-247); U-87 MG is a human glioblastoma cell line (ATCC No. HTB-14); A375 is a human malignant melanoma cell line (ATCC No. CRL-1619); K-562 is a human chronic myelogenous leukemia (CML) cell line characterized by the presence of a fusion transcript comprised of the Bcr and Abl1 genes (ATCC No. CCL-243); Jurkat; HEL 92.1.7 is a human erythroleukemia cell line (ATCC No. TIB-180). […] Tumor growth and body weight are monitored over time to evaluate efficacy and signs of toxicity. Bidimensional measurements of tumors are performed twice a week and tumor volumes are calculated based on the following formula: (Tumor Volume)=[(L)×(W2)×(Π/6)] where L is mid-axis length and W is mid-axis width. […] The log volume data are analyzed with a two-way repeated measures analysis of variance by time and treatment using the MIXED™ procedures in SAS™ software (version 8.2). […]

[2] = test system: human colon carcinoma (EL2144); test: Tumor growth inhibition, patient-derived tumor model EL2144; format: in vivo; conditions: EL2144 in mice, oral 10 mg/kg, Q2Dx8; p <0.0001
Description: as §1

[3] = test system: HEL 92.1.7 human erythroleukemia cell line; test: Tumor growth inhibition, HEL 92.1.7 xenograft; format: in vivo; conditions: HEL 92.1.7 in mice, oral 8 mg/kg, Q2dx14; p NS
Description: as §1

[4] = Toxicokinetics in Beagle dogs; format: in vivo, dog; conditions: for Cmax: beagle, po
Description: A study is carried out to assess the Toxicity and Toxicokinetics of 4,4,4-trifluoro-N-[(1S)-2-[[(7S)-5-(2-hydroxyethyl)-6-oxo-7H-pyrido[2,3-d][3]benzazepin-7-yl]amino]-1-methyl-2-oxo-ethyl]butanamide in dogs given oral gavage doses of 0 or 1.3 mg/kg once daily for 6 days or 0.3 or 3 mg/kg every other day for a total of 3 doses. 4,4,4-Trifluoro-N-[(1S)-2-[[(7S)-5-(2-hydroxyethyl)-6-oxo-7H-pyrido[2,3-d][3]benzazepin-7-yl]amino]-1-methyl-2-oxo-ethyl]butanamide is combined with a vehicle comprising 1% carboxymethylcellulose sodium, 0.25% polysorbate 80 and 0.05% Dow Corning® Antifoam 1510-US in purified water. Dogs (beagle), Covance Research Products, 1 animal/sex/group are fed daily (soon after dosing) and are fasted overnight prior to scheduled chemistry blood collections and necropsy. The test compound is administered by oral gavage in a volume of 2 mL/kg body weight. The duration of the study for all groups is 6 days.
Groups 01 and 04, Blood is collected at the following times relative to dosing on Day 1: 0.5, 1, 2, 4, 8, and 24 hours postdose.
Groups 02 and 04: Blood is collected at the following times relative to dosing on Days 2 and 6: 0 (predose; Day 6 only), 0.5, 1, 2, 4, 8, 24, 30, and 48 hours postdose.

[5] = Beagle dog, single oral dose 1.3 mg/kg, Subject 0007_M
[6] = Beagle dog, single oral dose 1.3 mg/kg, Subject 0008_F
[7] = Beagle dogs, multiple oral doses (3 doses/week), 0.3 mpk, mean n = 2
[8] = Beagle dogs, multiple oral doses (3 doses/week), 3 mpk, mean n = 2
[9] = Beagle dogs, single oral dose 1.3 mg/kg, Mean, n = 2
[10] = Beagle dogs, single oral dose, 0.3 mpk, mean n = 2
[11] = Beagle dogs, single oral dose, 3 mpk, mean n = 2

## C[C@H](NC(=O)CCC(F)(F)F)C(=O)N[C@@H]1C(=O)N(CCO)c2ncccc2-c2ccccc21 [Compound 1, 4,4,4-trifluoro-N-[(1S)-2-[[(7S)-5-(2-hydroxyethyl)-6-oxo-7H-pyrido[2,3-d][3]benzazepin-7-yl]amino]-1-methyl-2-oxo-ethyl]butanamide]
[1]
  % TGI: 54.96 (<0.05 to %
[2]
  % TGI: 53.37 (<0.0001) %
[3]
  % TGI: 7.20 (NS) %
[4]; [5]
  AUC: 4030 ng·h/mL
  Tmax: 30 min
[4]; [6]
  AUC: 4500 ng·h/mL
  Tmax: 30 min
[4]; [7]
  AUC: 3070 ng·h/mL
  Tmax: 45 min
[4]; [8]
  AUC: 14400 ng·h/mL
  Tmax: 45 min
[4]; [9]
  AUC: 4270 ng·h/mL
  Tmax: 30 min
[4]; [10]
  AUC: 1290 ng·h/mL
  Tmax: 30 min
[4]; [11]
  AUC: 5860 ng·h/mL
  Tmax: 30 min
[4]; both sexes, dog, blood, 1.3 mg/kg, Beagle dogs, single oral dose 1.3 mg/kg, Mean, n = 2
  Cmax: 1940 ng/mL
[4]; both sexes, dog, in vivo, 0.3 mg/kg, Beagle dogs, multiple oral doses (3 doses/week), 0.3 mpk, mean n = 2
  Cmax: 2460 ng/mL
[4]; both sexes, dog, in vivo, 0.3 mg/kg, Beagle dogs, single oral dose, 0.3 mpk, mean n = 2
  Cmax: 309 ng/mL
[4]; both sexes, dog, in vivo, 3 mg/kg, Beagle dogs, multiple oral doses (3 doses/week), 3 mpk, mean n = 2
  Cmax: 4530 ng/mL
[4]; both sexes, dog, in vivo, 3 mg/kg, Beagle dogs, single oral dose, 3 mpk, mean n = 2
  Cmax: 2730 ng/mL
[4]; dog, daily and TIW regimens
  24 hour drug concentrations: minimal
[4]; female, dog, blood, 1.3 mg/kg, Beagle dog, single oral dose 1.3 mg/kg, Subject 0008_F
  Cmax: 2070 ng/mL
[4]; male, dog, blood, 1.3 mg/kg, Beagle dog, single oral dose 1.3 mg/kg, Subject 0007_M
  Cmax: 1800 ng/mL

From patent US20190209581A1, “DOSAGE REGIMEN FOR TREATMENT OF SOLID TUMORS” (Eli Lilly and Company, priority 2016, published 2019)
